For this test, the target named is BTK (Homo sapiens, UniProt Q06187). As to the kind of experiment: BTK Enzyme Assay. The class given is biochemical. As to conditions: 1 uM compound; read-out: BTK (% inh @ 1 uM). As for the experimental part:
The following TABLE II lists compounds representative of the invention and their activity in BTK assays. In these assays, the following grading was used: A: >30% inhibition @1 μM; B: <30% inhibition @1 μM.

Our source for the inhibition values is patent US10844074B2, “Heterocycle compounds and uses thereof” (ZHEJIANG JIANFENG-YIEN BIOTECHNOLOGY CO., LTD., priority 2015, dated 2020).

Chain of BTK (Q06187 whole entry): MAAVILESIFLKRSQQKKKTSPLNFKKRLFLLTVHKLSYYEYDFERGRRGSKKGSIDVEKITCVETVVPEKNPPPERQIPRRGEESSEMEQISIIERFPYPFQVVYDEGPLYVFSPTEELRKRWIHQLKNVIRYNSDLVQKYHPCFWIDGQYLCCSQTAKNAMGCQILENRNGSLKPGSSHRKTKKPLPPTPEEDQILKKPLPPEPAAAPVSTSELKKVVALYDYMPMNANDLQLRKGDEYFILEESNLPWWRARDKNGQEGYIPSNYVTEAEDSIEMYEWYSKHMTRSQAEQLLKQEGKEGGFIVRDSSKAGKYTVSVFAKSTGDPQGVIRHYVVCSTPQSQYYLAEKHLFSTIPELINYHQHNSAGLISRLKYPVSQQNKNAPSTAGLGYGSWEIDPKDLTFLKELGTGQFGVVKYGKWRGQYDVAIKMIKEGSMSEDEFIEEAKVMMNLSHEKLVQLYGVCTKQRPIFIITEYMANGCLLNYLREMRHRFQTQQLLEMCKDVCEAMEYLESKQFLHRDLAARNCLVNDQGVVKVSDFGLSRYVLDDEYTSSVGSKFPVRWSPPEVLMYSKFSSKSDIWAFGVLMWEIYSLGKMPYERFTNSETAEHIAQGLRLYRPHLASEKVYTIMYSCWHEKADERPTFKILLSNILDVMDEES

Take `C=CC(=O)Nc1cc(Nc2nc(-c3cccc(NC)c3)c3ccsc3n2)c(OC)cc1N(C)CCN(C)C` [Compound 33, N-[2-[2-(dimethylamino)ethyl-methyl-amino]-4-methoxy-5-[[4-[3-(methylamino)phenyl]thieno[2,3-d]pyrimidin-2-yl]amino]phenyl]prop-2-enamide]: the inhibition at 1 µM is below 30%.

Consider `C=CC(=O)Nc1cc(NC2=NC(c3cccc(NC)c3)C3SC=CC3=N2)c(OC)cc1OCCN(C)C` (centres unmarked) [Compound 13, N-[2-[2-(dimethylamino)ethoxy]-4-methoxy-5-[[4-[3-(methylamino)phenyl]-4,4a-dihydrothieno[3,2-d]pyrimidin-2-yl]amino]phenyl]prop-2-enamide], for which the inhibition at 1 µM was above 30%. In the case of `C=CC(=O)Nc1cc(NC2=NC(c3cccc(N(C)C)c3)C3SC=CC3=N2)c(OC)cc1N1CCC(C(=O)N(C)C)CC1` (centres unmarked) [Compound 16, 1-[4-[[4-[3-(dimethylamino)phenyl]-4,4a-dihydrothieno[3,2-d]pyrimidin-2-yl]amino]-5-methoxy-2-(prop-2-enoylamino)phenyl]-N,N-dimethyl-piperidine-4-carboxamide] it was above 30%. The same measure for `C=CC(=O)Nc1cc(N(C)c2nc(-c3c[nH]c4ccccc34)c3sccc3n2)c(OC)cc1N(C)CCN(C)C` [Compound 53, N-[2-[2-(dimethylamino)ethyl-methyl-amino]-5-[[4-(1H-indol-3-yl)thieno[3,2-d]pyrimidin-2-yl]-methyl-amino]-4-methoxy-phenyl]prop-2-enamide]: above 30%; for `C=CC(=O)Nc1cc(NC2=NC(c3cccc(N)c3)C3SC=CC3=N2)c(OC)cc1N1CCN(C)CC1` (centres unmarked) [Compound 19, N-[5-[[4-(3-aminophenyl)-4,4a-dihydrothieno[3,2-d]pyrimidin-2-yl]amino]-4-methoxy-2-(4-methylpiperazin-1-yl)phenyl]prop-2-enamide]: below 30%. Regarding `C=CC(=O)Nc1cc(Nc2nc(-c3ccccc3)c3ccsc3n2)c(OC)cc1N(C)CC` [Compound 40, N-[2-[ethyl(methyl)amino]-4-methoxy-5-[(4-phenylthieno[2,3-d]pyrimidin-2-yl)amino]phenyl]prop-2-enamide], the inhibition at 1 µM was below 30%.

`C=CC(=O)Nc1cc(NC2=NC(c3cccc(NC)c3)C3SC=CC3=N2)c(OC)cc1N1CCC(C(=O)N(C)C)CC1` (centres unmarked) [Compound 17, 1-[5-methoxy-4-[[4-[3-(methylamino)phenyl]-4,4a-dihydrothieno[3,2-d]pyrimidin-2-yl]amino]-2-(prop-2-enoylamino)phenyl]-N,N-dimethyl-piperidine-4-carboxamide]: the inhibition at 1 µM is below 30%. On to `C=CC(=O)Nc1cc(Nc2nc(-c3cc[nH]c3)c3sccc3n2)c(OC)cc1N1CCN(C)CC1` [Compound 49, N-[4-methoxy-2-(4-methylpiperazin-1-yl)-5-[[4-(1H-pyrrol-3-yl)thieno[3,2-d]pyrimidin-2-yl]amino]phenyl]prop-2-enamide], for which the inhibition at 1 µM was above 30%. As for `C=CC(=O)Nc1cc(Nc2nc(-c3ccccc3)c3ccsc3n2)c(OC)cc1N1CCN(C)CC1` [Compound 42, N-[4-methoxy-2-(4-methylpiperazin-1-yl)-5-[(4-phenylthieno[2,3-d]pyrimidin-2-yl)amino]phenyl]prop-2-enamide], the inhibition at 1 µM was below 30%. `C=CC(=O)Nc1cc(Nc2nc(-c3c[nH]c4ccccc34)c3sccc3n2)c(OC)cc1N1CCOCC1` [Compound 23, N-[5-[[4-(1H-indol-3-yl)thieno[3,2-d]pyrimidin-2-yl]amino]-4-methoxy-2-morpholino-phenyl]prop-2-enamide]: the inhibition at 1 µM is above 30%. `C=CC(=O)Nc1cc(Nc2nc(-c3cn(C)c4ccccc34)c3sccc3n2)c(OC)cc1N1CCN(C)CC1` [Compound 22, N-[4-methoxy-5-[[4-(1-methylindol-3-yl)thieno[3,2-d]pyrimidin-2-yl]amino]-2-(4-methylpiperazin-1-yl)phenyl]prop-2-enamide]: the inhibition at 1 µM is above 30%.
